Data on one compound can be found in patent EP4205737A1, “COMPOSITION FOR PREVENTION, AMELIORATION, OR TREATMENT OF INFLAMMATORY DISEASES OR IMMUNE DISEASES COMPRISING GANCAONIN N AS ACTIVE INGREDIENT” (UNIVERSITY-INDUSTRY COOPERATION GROUP OF KYUNG HEE …, priority 2020, dated 2022).

The test system of one assay is IL-6. Put plainly: Western blotting of IL-6 protein in LPS-stimulated A549 cells. In kind it is cell-based, human. Particulars: LPS 5 µg/mL, 5 to 40 µM (FIG. 4C). Here is the method:
RAW264.7 cells and A549 cells were dispensed into 6-well plates (1 × 10^6 cells/well) and cultured under conditions of 37°C and 5% CO2. After the culturing, the Raw 264.7 cells were treated with 1 µg/mL of lipopolysaccharide (LPS) and the A549 cells were treated with 5 µg/mL of lipopolysaccharide (LPS) and with 5 µM to 40 µM of gancaonin N, and the cells were cultured for 24 hours or 6 hours. Then, the cells were lysed using a lysis buffer. In addition, the left lung extracted from each mouse was lysed using RIPA buffer. SDS-PAGE electrophoresis was performed on the cell and tissue lysates to separate proteins by side, and 5% bovine serum albumin was used for culturing and for blocking antibodies against PGE2 (1:500), IL-1β (1:500), IL-6 (1:500), TNF-α (1:500), i-NOS (1:500), COX-2 (1:1000), P-ERK1/2 (1:1000), ERK1/2 (1:3000), P-p38 (1:1000), p38 (1:3000), NF-κB p65 (1:1000), Lamin B1 (1:1000), and β-actin (1: 5,000).
For the pro-inflammatory cytokines whose mRNA expression inhibition was confirmed as above, the expression level of the protein encoded by the mRNA was further checked. To determine the protein expression level, A549 cells were treated with LPS and gancaonin N as described in Examples 1 to 8, and the protein expression levels were checked.

For assay [1], the system named is LPS-induced acute lung injury (ALI) mouse model. Put plainly: Bronchoalveolar lavage fluid analysis (inflammatory cell infiltration), LPS-induced acute lung injury mouse model. Conditions: mice, 10 mg/kg or 30 mg/kg intraperitoneally one hour before intratracheal LPS. The assay is classed as in vivo, BALB/c mice. On the procedure:
(§1) 25 6-week-old female BALB/c mice having a weight of 18g to 20 g were purchased from BioLink (DBL CO., Eumseong, Chungcheongbuk-do, Korea), and reared in the animal laboratory of KyungHee University. To establish an LPS-induced acute lung injury model, all the mice were divided into five groups each group of which consisted of 5 mice, and the five groups were referred to as control, vehicle (only LPS treatment), gancaonin N (10 mg/kg), gancaonin N (30 mg/kg), and dexamethasone (3 mg/kg). Gancaonin N was intraperitoneally injected at a dose of 10 mg/kg or 30 mg/kg, and dexamethasone was intraperitoneally injected at a dose of 3 mg/kg as a positive control group. In addition, the control and vehicle groups were intraperitoneally injected with 4% DMSO in which gancaonin N was dissolved. […]
Bronchoalveolar lavage fluid (BALF) was obtained after anesthetizing each mouse with intranasal isoflurane. […] The cells were stained with the Diff-Quik kit (Sysmex, Kobe, Japan), observed under a microscope, and sorted, and then the total cells and neutrophils were counted.
(§2) The mouse models prepared as described in Examples 1 to 3 were treated with LPS to induce acute lung injury (ALI), and then the anti-inflammatory effect of gancaonin N was specifically evaluated for the mice of five groups (control, vehicle (only LPS), gancaonin N (10 mg/kg), gancaonin N (30 mg/kg), and dexamethasone (3 mg/kg)), […]

Another assay deals with TNF-α. In words: Real-time PCR of TNF-α mRNA in LPS-stimulated A549 cells. Particulars: LPS 5 ug/mL, 5 to 40 µM, 24 hours, effect proportional to amount (FIG. 3A). In kind it is cell-based, human. On the procedure: A549 cells were dispensed into 6-well plates (1 × 10^6 cells/well) and cultured under conditions of 37°C and 5% CO2. After the culturing, the A549 cells were treated with of 5 ug/mL of lipopolysaccharide (LPS) and with 5 µM to 40 µM of gancaonin N, and the cells were then cultured for 24 hours. Afterwards, total RNA was isolated from each treated cell using Hybrid-RTM (GeneAll, South Korea). The isolated total RNA (500 ng) was converted to cDNA sequentially through incubation at 55°C for 60 minutes using oligo (dT) and incubation at 85°C for 5 minutes, and the cDNA was stored at 4°C until being used. In addition, real-time quantitative PCR was performed using Universal SYBR Green Master Mix (Applied Biosystems, USA), and the cDNA was amplified under conditions described below. 95°C for 15 minutes, then 95°C for 30 seconds, 59°C for 30 seconds, and 72°C for 30 seconds were repeated 40 times. […]
To investigate the inhibitory effect of gancaonin on the expression levels of pro-inflammatory cytokines, the mRNA expression levels of tumor necrosis factor-α (hereinafter referred to as TNF-α), interleukin-1 beta (hereinafter referred to as IL-1β), and interleukin 6 (hereinafter referred to as IL-6) which are all known as pro-inflammatory cytokines were measured. […]

The subject of assay [2] is LPS-induced acute lung injury (ALI) mouse model. In words: Lung wet/dry ratio measurement (pulmonary edema), LPS-induced acute lung injury mouse model. The assay is classed as in vivo, BALB/c mice. Particulars: mice, 10 mg/kg or 30 mg/kg intraperitoneally, LPS-induced ALI (FIG. 7). On the procedure: as §1
To determine the severity of pulmonary edema, the wet weight of the right upper lung was measured, the tissue was dried 60°C for 72 hours, and the dry weight was measured. Afterwards, the W/D ratio was calculated.
as §2

A further assay relates to COX-2. In words: Western blotting of COX-2 in lung of LPS-induced acute lung injury mouse model. Conditions: mice, 10 mg/kg or 30 mg/kg intraperitoneally, LPS-induced ALI, Western blotting (FIG. 8). The assay is classed as in vivo, BALB/c mice. Here is the method:
25 6-week-old female BALB/c mice having a weight of 18g to 20 g were purchased from BioLink (DBL CO., Eumseong, Chungcheongbuk-do, Korea), and reared in the animal laboratory of KyungHee University. To establish an LPS-induced acute lung injury model, all the mice were divided into five groups each group of which consisted of 5 mice, and the five groups were referred to as control, vehicle (only LPS treatment), gancaonin N (10 mg/kg), gancaonin N (30 mg/kg), and dexamethasone (3 mg/kg). Gancaonin N was intraperitoneally injected at a dose of 10 mg/kg or 30 mg/kg, and dexamethasone was intraperitoneally injected at a dose of 3 mg/kg as a positive control group. In addition, the control and vehicle groups were intraperitoneally injected with 4% DMSO in which gancaonin N was dissolved. Then, 10 µg/50 µL of LPS was intratracheally administered to the mice except for the control group one hour later (the control group mice were administered 50 µL of PBS), and the mice were sacrificed 12 hours later.
RAW264.7 cells and A549 cells were dispensed into 6-well plates (1 × 10^6 cells/well) and cultured under conditions of 37°C and 5% CO2. […]
To specifically investigate whether gancaonin N can inhibit pro-inflammatory factors in a mouse model, the protein expression levels of COX-2, IL-1β, and TNF-α were measured by Western blotting as described in Examples 1 to 6 above.

With `COc1ccc(-c2coc3cc(O)c(CC=C(C)C)c(O)c3c2=O)c(O)c1` [gancaonin N, 5,7-dihydroxy-3-(2-hydroxy-4-methoxyphenyl)-6-(3-methylbut-2-enyl)chromen-4-one], the “protein expression of IL-6” value with IL-6 is “significantly inhibited”. The “cell count in bronchoalveolar lavage fluid (BALF)” value in assay [1] (sacrificed 12 hours later (FIG. 6B)) is “significantly reduced”. Also, the “neutrophil count in bronchoalveolar lavage fluid (BALF)” value in assay [1] (sacrificed 12 hours later (FIG. 6C)) is recorded as “significantly reduced”. In the assay on TNF-α, the “mRNA expression of TNF-α” value is on record as “significantly inhibited”. Moreover, in assay [2], the W/D ratio entry was “significantly lowered”. Besides, the “protein expression level of COX-2 in lung” value in the assay with COX-2 is given as “significantly reduced”.
